From patent US5384260A, “Detection of onset of antiestrogen resistance in breast cancer” (Board of Regents, The University of Texas System, priority 1993, dated 1995)
“And” between values parts separate entries of the source, which are not always exact repeats. Equal values may be shown once. “Also recorded” adds a separate entry of the source.

What was measured:
human breast tumors = assay: HPLC and mass spectrometry of tamoxifen metabolites in human breast tumors failing tamoxifen (Example 3); format: in vivo; details: HPLC / EI-MS
Source text: (§1) Human breast tumors from various patients who failed tamoxifen therapy (20 mgs/day>one year) were obtained from the Breast Cancer Tumor Bank. A portion of the tumor was extracted, irradiated and analyzed by Mass Spectrometry (procedure described below). Tumor tissue was also obtained from an in vivo nude mouse model of acquired tamoxifen resistance. MCF-7 human breast tumors were harvested from nude mice after the development of tamoxifen resistance (4-6 months of tamoxifen administration, 500 ug/day). These tissues were frozen at -20° C. until analysis. Frozen tissue samples were weighed, homogenized, and extracted. Briefly, all samples were extracted with 6.0 ml of 2% butanol in hexane, vortexed for 1.0 min, and then centrifuged for 10 min at 1000×g. The organic phase was dried under N2 gas at 37° C. and reconstituted in 200 μl methanol prior to injection. The reconstituted samples were transferred to a Infrasil quartz cuvette (Fisher Scientific), irradiated for one minute with a 15 W Hg vapor lamp and injected onto a HPLC column.
(§2) The HPLC system consisted of a Beckman model 320 gradient liquid chromatograph, two model 110A pumps, and a model 420 controller. The HPLC was equipped with a reverse phase Altex C18 ultrasphere ODS column and a 100 μl injection loop. The mobil phase consisted of 7% H2 O and 0.18% triethylamine in methanol. The flow rate of the mobil phase was set at 0.5 ml/min. The fluorescence of photochemically activated compounds was detected with an Applied Biosystems 980 fluorometer with excitation wavelength set at 266 nm. Retention times and peak heights were recorded with a Spectraphysics 4100 integrator.
Non-irradiated samples were also injected onto the HPLC column and fractions were collected every minute. Fractionations corresponding to the retention times noted for the bisphenol and monophenol tamoxifen were further evaluated using mass-Spectrometry. The mass spectrometric behavior of the mono and bis phenols under electron impact ionization mass-spectrometry (EI-MS) was utilized. HPLC separated samples, in glass vials, were extracted with methanol, injected into glass capillaries and dried. Samples were introduced via a direct insertion probe. Spectra were recorded at 70 eV over the mass range of 70-500 at 10 seconds per decade with a resolution of 1000. The probe was heated in stages to 200° C.

human tumor specimens = assay: HPLC of tamoxifen and 4-OH-TAM isomers in tumors of tamoxifen-treated patients (Example 2); format: in vivo; details: for cis versus trans 4-OH-TAM in tumor nuclear pellets: patients with clinically-evident tumor resistance, FIG. 8
Experimental: (§3) Quantification of tamoxifen and its metabolites in tumor specimens was performed using photactivation and high performance liquid chromatography (HPLC) analysis. To summarize: Each tumor sample was weighed, spiked with an internal standard, and homogenized. Tissue samples were then extracted with 2% n-butanol in hexane and irradiated with high intensity ultraviolet light (254 nm). Samples were analyzed by HPLC using a C-18 reverse phase column and eluted isocratically with a mobile phase of water (7%) and triethylamine (0.25%) in methanol. All solvents were of HPLC grade. Fluorescence of all compounds was measured at a wavelength of 266 nm. […] In some samples, the tumor was first homogenized and then the nuclear pellet obtained by centrifugation. HPLC tamoxifen measurements were made on extracts of the entire tumor specimen or on subcellular fractions including the cytosol or-the total nuclear pellet. In some cases, the nuclear pellet was further extracted in 0.4M KCl to extract primary metabolites bound to estrogen receptor.
1) identification and measurement of tamoxifen and its metabolites in tumors isolated from tamoxifen-treated patients who are known treatment failures;
There are two tamoxifen-sensitive tumors (L281 and G375) for comparison because patients responding to treatment are not usually biopsied during the responsive phase of their disease.

MCF-7 tumors [1] = assay: HPLC of tamoxifen and metabolites in MCF-7 mouse tumors (Example 3); details: for Presence in MCF-7 tamoxifen resistant mouse tumor: HPLC, FIG. 13
Source text: as §1
as §2, with “The mobil phase consisted of 7% H2 O and 0.18% triethylamine in methanol.” left out

T47D human breast cell = details: cited from earlier work
[2] = in vitro; cited from earlier work
[3] = HPLC of tamoxifen and metabolites in MCF-7 mouse tumors (Example 3); details: mouse, mcf-7 tumor, 500 ug/day
Source text: as §1
as §2, with “The mobil phase consisted of 7% H2 O and 0.18% triethylamine in methanol.” left out

[4] = cited from earlier work
MCF-7 tumors [5] = assay: HPLC quantification of tamoxifen and cis/trans-4-hydroxytamoxifen ratio in MCF-7 tumors from tamoxifen-treated mice (total tumor, nuclear pellet, KCl nuclear extract); format: in vivo; details: for Mean 4-OH-TAM cis/trans ratio: p < 0.0005
Experimental: In order to examine the relationship between tamoxifen metabolites and tamoxifen resistance, athymic Balb/c nude mice were implanted with human breast cancer tumor cells (MCF-7). Mice were treated daily for 4-6 months with subcutaneous tamoxifen. After tamoxifen resistance developed and tumor progression was observed, mice were sacrificed, and tumors were collected. In addition, tamoxifen-sensitive tumors were collected from mice still responding to tamoxifen therapy.
as §3, with “Samples were analyzed by HPLC using a C-18 reverse phase column and eluted isocratically with a mobile phase of water (7%) and triethylamine (0.25%) in methanol.” left out
The material extracted with KCl includes that bound to estrogen receptor.

[6] = in vivo; cited from earlier work
[7] = resistant MCF-7 mouse tumors, N = 10 (N-DES 9, monophenol 8)
[8] = sensitive MCF-7 mouse tumors, N = 6 (bisphenol 5)

CCC(=C(c1ccccc1)c1ccc(OCCN)cc1)c1ccccc1 [metabolite Z, didesmethyltamoxifen]
Presence in human breast cancer tissue (human breast tumors): Peaks were also noted

CC/C(=C(/c1ccc(O)cc1)c1ccc(OCCN(C)C)cc1)c1ccccc1 [cis 4-hydroxytamoxifen]
cis versus trans 4-OH-TAM in tumor nuclear pellets (human tumor specimens): higher cis 4-OH-TAM in the nuclear pellets

CCC(=C(c1ccc(O)cc1)c1ccc(OCCNC)cc1)c1ccccc1 [metabolite Bx]
Presence in human breast cancer tissue (human breast tumors): Peaks were also noted | Presence in MCF-7 tamoxifen resistant mouse tumor (MCF-7 tumors [1]): noted on the chromatogram

CC/C(=C(\c1ccccc1)c1ccc(O)cc1)c1ccccc1 [Trans-metabolite E]
Estrogen agonist activity of metabolite E isomers (T47D human breast cell): weak partial agonist | Isomerization to cis metabolite E [2]: demonstrated in vitro

CCC(=C(c1ccccc1)c1ccc(O)cc1)c1ccccc1 [monophenol]
Presence in human breast cancer tissue (human breast tumors): confirmed the presence of monophenol | Presence in human breast cancer tissue (human breast tumors; listed as monophenoltamoxifen): present in tumors isolated from patients who failed tamoxifen therapy | concentration at 4380 h [3]: 22 ng/g | Tamoxifen and metabolite concentrations, individual animal (MCF-7 tumors [1]; resistant MCF-7 mouse tumors): 24.30 .eta.g/g tissue and 9.63 .eta.g/g tissue and 21.99 .eta.g/g tissue and 20.66 .eta.g/g tissue and 232.66 .eta.g/g tissue and 47.82 .eta.g/g tissue and 27.13 .eta.g/g tissue | Tamoxifen and metabolite concentrations, mean (X) (MCF-7 tumors [1]; [7]): 49.35 .eta.g/g tissue | Tamoxifen and metabolite concentrations, individual animal (MCF-7 tumors [1]; sensitive MCF-7 mouse tumors): 7.69 .eta.g/g tissue and 109.07 .eta.g/g tissue and 160.99 .eta.g/g tissue and 37.72 .eta.g/g tissue and 265.25 .eta.g/g tissue and 137.93 .eta.g/g tissue | Tamoxifen and metabolite concentrations, mean (X) (MCF-7 tumors [1]; [8]): 119.78 .eta.g/g tissue | Presence in dog bile ([4]; dog, in vivo): isolated from the bile of dogs | Share of radiolabeled compounds present in bile ([4]; dogs): approximately 6%

CC/C(=C(\c1ccc(O)cc1)c1ccc(OCCN(C)C)cc1)c1ccccc1 [trans 4-hydroxytamoxifen]
40H trans peak height (human tumor specimens; pellet (KCl nuclear extract), nd = not detectable, listed as 40H trans): 1024 and 1194

CC/C(=C(/c1ccccc1)c1ccc(O)cc1)c1ccccc1 [cis-metabolite E]
Estrogen agonist activity of metabolite E isomers (T47D human breast cell): potent estrogen agonist | Stimulation of T47D human breast cell growth (T47D human breast cell): more potent than bisphenol

CCC(=C(c1ccc(O)cc1)c1ccc(O)cc1)c1ccccc1 [bisphenol]
Presence in human breast cancer tissue (human breast tumors): the presence of bisphenol could not be confirmed | Presence in human breast cancer tissue (human breast tumors; listed as bisphenoltamoxifen): also present in these patients | Presence in MCF-7 tamoxifen resistant mouse tumor (MCF-7 tumors [1]): A very small peak was evident at a retention time similar to bisphenol | Tamoxifen and metabolite concentrations, individual animal (MCF-7 tumors [1]; resistant MCF-7 mouse tumors): 15.12 .eta.g/g tissue and 18.34 .eta.g/g tissue and 4.26 .eta.g/g tissue and 3.93 .eta.g/g tissue and 32.75 .eta.g/g tissue and 9.77 .eta.g/g tissue and 43.87 .eta.g/g tissue and 52.72 .eta.g/g tissue and 23.38 .eta.g/g tissue | Tamoxifen and metabolite concentrations, mean (X) (MCF-7 tumors [1]; [7]): 21.33 .eta.g/g tissue | Tamoxifen and metabolite concentrations, individual animal (MCF-7 tumors [1]; sensitive MCF-7 mouse tumors): 44.27 .eta.g/g tissue and 33.90 .eta.g/g tissue and 39.80 .eta.g/g tissue and 1491.44 .eta.g/g tissue and 352.76 .eta.g/g tissue | Tamoxifen and metabolite concentrations, mean (X) (MCF-7 tumors [1]; [8]): 392.43 .eta.g/g tissue

CCC(=C(c1ccc(O)cc1)c1ccc(OCCN(C)C)cc1)c1ccccc1 [4-OH-TAM, 4-hydroxytamoxifen]
Cis/trans 4-OH-TAM ratio, individual tumor (MCF-7 tumors [5]; resistant MCF-7 tumors (N = 16)): 0.86 and 0.812 and 0.442 and 0.929 and 1.019 and 0.777 and 1.073 and 0.49 and 0.724 and 0.868 and 0.59 and 0.73 and 1.16 and 0.76 and 0.932 | cis 4-OH-TAM/trans-4-OH-TAM ratio in KCl-extracted nuclear pellets compared with other fractions (MCF-7 tumors [5]; resistant tumor, FIG. 7): larger in the nuclear pellets extracted with KCl | C/T-OH-TAM ratio (summary) (MCF-7 tumors [5]; resistant tumors): 0.8-0.9 | Median cis/trans 4-OH-TAM ratio (MCF-7 tumors [5]; resistant tumors): 0.84 | Number of tumors with cis/trans ratio > 0.60 (MCF-7 tumors [5]; resistant tumors): 13/16 | Number of tumors with cis/trans ratio ≤ 0.60 (MCF-7 tumors [5]; resistant tumors): 3/16 | Range of cis/trans 4-OH-TAM ratio (MCF-7 tumors [5]; resistant tumors): 0.442-1.16 | Mean 4-OH-TAM cis/trans ratio (MCF-7 tumors [5]; resistant tumors, SD = 0.196): 0.8141 | cis/trans 4-OH-TAM ratio, resistant compared with sensitive tumors (MCF-7 tumors [5]; resistant vs sensitive): higher cis/trans ratios; also recorded: increase; also recorded: lower in sensitive than in resistant tumors; also recorded: the cis/trans ratio is higher in the resistant tumor | Cis/trans 4-OH-TAM ratio, individual tumor (MCF-7 tumors [5]; sensitive MCF-7 tumors (N = 16)): 0.575 and 0.588 and 0.472 and 0.56 and 0.645 and 0.428 and 0.446 and 0.4632 and 0.476 and 0.506 and 0.34 and 0.486 and 0.38 and 1.0 and 0.77 | C/T-OH-TAM ratio (summary) (MCF-7 tumors [5]; sensitive tumors): 0.4-0.5 | Median cis/trans 4-OH-TAM ratio (MCF-7 tumors [5]; sensitive tumors): 0.48 | Number of tumors with cis/trans ratio > 0.60 (MCF-7 tumors [5]; sensitive tumors): 3/16 | Number of tumors with cis/trans ratio ≤ 0.60 (MCF-7 tumors [5]; sensitive tumors): 13/16 | Range of cis/trans 4-OH-TAM ratio (MCF-7 tumors [5]; sensitive tumors): 0.34-1.0 | Mean 4-OH-TAM cis/trans ratio (MCF-7 tumors [5]; sensitive tumors, SD = 0.168): 0.5297 | cis versus trans 4-OH-TAM in tumor nuclear pellets (human tumor specimens): greater cis than trans levels | cis/trans ratios in total tumor extract (human tumor specimens; tamoxifen-resistant patients' tumors, majority): relatively high cis/trans ratios in the total tumor extract | cis/trans ratios (human tumor specimens; two tumors from tamoxifen-sensitive patients): low cis/trans ratios

CCC(=C(c1ccccc1)c1ccc(OCCNC)cc1)c1ccccc1 [N-desmethyltamoxifen]
concentration at 4380 h [3]: 135 ng/g | Tamoxifen and metabolite concentrations, individual animal (MCF-7 tumors [1]; resistant MCF-7 mouse tumors): 19.65 .eta.g/g tissue and 68.12 .eta.g/g tissue and 38.44 .eta.g/g tissue and 135.44 .eta.g/g tissue and 50.27 .eta.g/g tissue and 65.70 .eta.g/g tissue and 127.29 .eta.g/g tissue and 100.43 .eta.g/g tissue | Tamoxifen and metabolite concentrations, mean (X) (MCF-7 tumors [1]; [7]): 71.28 .eta.g/g tissue | Tamoxifen and metabolite concentrations, individual animal (MCF-7 tumors [1]; sensitive MCF-7 mouse tumors): 124.70 .eta.g/g tissue and 331.82 .eta.g/g tissue and 534.62 .eta.g/g tissue and 5.95 .eta.g/g tissue and 322.99 .eta.g/g tissue and 359.67 .eta.g/g tissue | Tamoxifen and metabolite concentrations, mean (X) (MCF-7 tumors [1]; [8]): 279.95 .eta.g/g tissue | Occurrence in human serum [6]: major metabolite found in human serum
